{"source": "patent US20040121961A1", "about": "“Uroguanylin and cyclooxygenase-2 inhibitor combinations for inhibition of intestinal cancer” (priority 2004, published 2004)", "origin": "cited, not measured here", "key": {"[1]": {"test_system": "T-84, human colon carcinoma cells", "conditions": "treatment with uroguanylin; reported in PCT/US00/21998"}, "[2]": {"test_system": "Min-mouse, an animal model for human Familial Adenomatous Polyposis (FAP)", "conditions": "oral administration, reported in PCT/US00/21998"}}, "note": "No end group written: not given here.", "data": [{"substance": "uroguanylin: enteric peptide hormone, GC-C receptor agonist; human uroguanylin chemically synthesized by solid phase peptide synthesis (NDDCELCVNVACTGCL; ends and bridges not checked; cysteine pairing not given here; UniProt Q16661 97-112, looked up)", "values": [{"measurement": "apoptosis in T-84 cells", "setting": "[1]", "value": "induction of apoptosis"}, {"measurement": "polyp formation in the intestinal tract", "setting": "[2]", "value": "inhibition in polyp formation"}]}]}
